This note sets out measurements from patent US8003659B2, “Macrocyclic serine protease inhibitors” (Indenix Pharmaceuticals, Inc., priority 2008, dated 2011).

One series deals with T1, HCV NS3-NS4A protease (Hepatitis C virus genotype 1b, UniProt P26663).
T1 construct: made in house
Kind of series: HCV Protease Assay (SensoLyte 620 HCV Protease Assay kit). Type of series: biochemical. Particulars: 1.2 nM HCV NS3-NS4A protease, 60 min at room temperature, 5% DMSO. The procedure: General procedure: Measurement of the inhibitory effect of compounds on HCV protease activity was performed with the SensoLyte™ 620 HCV Protease Assay kit from AnaSpec, Inc. (San Jose, Calif.) under conditions described by the supplier using 1.2 nM HCV NS3-NS4A protease, which was obtained according to Taremi et al. (Protein Science, 1998, 7, 2143-2149). The compounds were tested at a variety of concentrations in assay buffer containing a final DMSO concentration of 5%. Reactions were allowed to proceed for 60 min at room temperature and fluorescence measurements were recorded with a Tecan Infinity Spectrofluorimeter. The IC50 values were determined from the percent inhibition versus concentration data using a sigmoidal non-linear regression analysis based on four parameters with Tecan Magellan software.

The nature of series [1]: Cytotoxicity evaluation (Cell Titer 96 AQueous One Solution Cell Proliferation Assay). In kind it is cell-based. The settings on record: human; GS4.1 cells, cellular viability. The procedure:
For cytotoxicity evaluation, GS4.1 cells were treated with compounds as described above and cellular viability was monitored using the Cell Titer 96 AQueous One Solution Cell Proliferation Assay (Promega). CC50 values were determined from the % cytotoxicity versus concentration data with Tecan Magellan software as described above.

Series [2] deals with Huh-7 cells containing HCV Con1 subgenomic replicon (GS4.1 cells). Kind of series: HCV Replicon Assay (NS4A ELISA). In kind it is cell-based. Particulars: Hepatitis C virus, Huh-7, 72 hr, NS4A protein by ELISA. The procedure: General procedure: Huh-7 cells containing HCV Con1 subgenomic replicon (GS4.1 cells) were grown in Dulbecco's Modified Eagle Medium (DMEM) supplemented with 10% fetal bovine serum (FBS), 2 mM L-glutamine, 110 mg/L sodium pyruvate, 1× non-essential amino acids, 100 U/mL penicillin-streptomycin, and 0.5 mg/mL G418 (Invitrogen). For dose-response testing, the cells were seeded in 96-well plates at 7.5×10^3 cells/well in a volume of 50 μL, and incubated at 37° C./5% CO2. Three hours after plating, 50 μL of ten 2-fold serial dilutions of compounds (highest concentration, 75 μM) were added, and cell cultures were incubated at 37° C./5% CO2 in the presence of 0.5% DMSO. Alternatively, compounds were tested at a single concentration of 15 μM. In all cases, Huh-7 cells lacking the HCV replicon served as negative control. The cells were incubated in the presence of compounds for 72 hr after which they were monitored for expression of the NS4A protein by enzyme-linked immunosorbent assay (ELISA). For this, the plates were then fixed for 1 min with acetone/methanol (1:1, v/v), washed twice with phosphate-buffered saline (PBS), 0.1% Tween 20, blocked for 1 hr at room temperature with TNE buffer containing 10% FBS and then incubated for 2 hr at 37° C. with the anti-NS4A mouse monoclonal antibody A-236 (ViroGen) diluted in the same buffer. After washing three times with PBS, 0.1% Tween 20, the cells were incubated 1 hr at 37° C. with anti-mouse immunoglobulin G-peroxidase conjugate in TNE, 10% FBS. After washing as described above, the reaction was developed with O-phenylenediamine (Zymed). The reaction was stopped after 30 min with 2 NH2SO4, and absorbance was read at 492 nm using Sunrise Tecan spectrophotometer. EC50 values were determined from the % inhibition versus concentration data using a sigmoidal non-linear regression analysis based on four parameters with Tecan Magellan software. When screening at a single concentration, the results were expressed as % inhibition at 15 μM.
A general note: Replicon systems follow genome replication, usually without infectious particles.

T1 sequence (P26663 1027-1208): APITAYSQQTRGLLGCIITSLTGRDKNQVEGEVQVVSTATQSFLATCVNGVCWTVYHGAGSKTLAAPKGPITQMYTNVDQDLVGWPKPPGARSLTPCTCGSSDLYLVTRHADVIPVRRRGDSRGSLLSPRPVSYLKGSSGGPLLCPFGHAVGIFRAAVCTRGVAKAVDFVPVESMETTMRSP

Usually IC50 stands for the concentration that inhibits the measured activity by half. As usually defined, the CC50 is the concentration that lowers cell viability or growth by half. Low readings indicate greater toxicity to the cells, high ones lower toxicity to the cells. As usually defined, the EC50 is the concentration needed to bring the measured effect to its halfway point. `COc1ccc2c(O[C@H]3C[C@H]4C(=O)N(C)CCCC/C=C\[C@@H]5C[C@@]5(C(=O)NS(C)(=O)=O)NC(=O)N4C3)cc(-c3nc(C(C)C)cs3)nc2c1C` [Compound 63b] came in with a concentration for half-maximal inhibition (IC50) against HCV NS3-NS4A protease of less than 1 µM. In addition, the CC50 in series [1] was greater than 75 µM. The same compound gave a concentration giving a half-maximal response (EC50) in series [2] of 1 to 10 µM.
The corresponding values for `COc1ccc2c(O[C@H]3C[C@H]4C(=O)N(C)CCCC/C=C\[C@@H]5C[C@@]5(C(=O)NS(=O)(=O)C5(C)CC5)NC(=O)N4C3)cc(-c3nc(C(F)(F)F)cs3)nc2c1Cl` [Compound 68d, (Z)-(4R,6S,15S,17S)-[17-[8-chloro-7-methoxy-2-(4-trifluoromethythiazol-2-yl)quinolin-4-yloxy]-13-N-methyl-2,14-dioxo-1,3,13-triazatricyclo[13.3.0.0]octadec-7-en-4-yl]carbonyl(1-methylcyclopropyl)sulfonamide] are less than 1 µM, greater than 75 µM and less than 1 µM.
With `COc1ccc2c(O[C@H]3C[C@H]4C(=O)N(C)CCCC/C=C\[C@@H]5C[C@@]5(C(=O)NS(=O)(=O)C5CC5)NC(=O)N4C3)cc(-c3nc(C(F)(F)F)cs3)nc2c1Cl` [Compound 69d, (Z)-(4R,6S,15S,17S)-[17-[8-chloro-7-methoxy-2-(4-trifluoromethythiazol-2-yl)quinolin-4-yloxy]-13-N-methyl-2,14-dioxo-1,3,13-triazatricyclo[13.3.0.0]octadec-7-en-4-yl]carbonyl(cyclopropyl)sulfonamide], at HCV NS3-NS4A protease, the 50% inhibitory concentration (IC50) is less than 1 µM. In series [1], this compound returned a CC50 of 10 to 75 µM. The compound also came in with an EC50 in series [2] of less than 1 µM.
As to `C#CC1(S(=O)(=O)NC(=O)[C@@]23C[C@H]2/C=C\CCCCN(C)C(=O)[C@@H]2C[C@H](Oc4cc(-c5nc(C(C)C)cs5)nc5c(C)c(OC)ccc45)CN2C(=O)N3)CC1` [Compound 83b, (Z)-(4R,6S,15S,17S)-[17-[7-methoxy-8-methyl-2-(4-isopropylthiazol-2-yl)quinolin-4-yloxy]-13-N-methyl-2,14-dioxo-1,3,13-triazatricyclo[13.3.0.0]octadec-7-en-4-yl]carbonyl(1-ethynylcyclopropyl)sulfonamide], on HCV NS3-NS4A protease, the half-inhibitory concentration (IC50) was less than 1 µM. In series [1], this compound returned a 50% cytotoxic concentration (CC50) greater than 75 µM. In series [2], this compound yielded a concentration for a half-maximal effect (EC50) of less than 1 µM.
At HCV NS3-NS4A protease, `COc1ccc2c(O[C@H]3C[C@H]4C(=O)N(C)CCCC/C=C\[C@@H]5C[C@@]5(C(=O)NS(=O)(=O)C5(C)CC5)NC(=O)N4C3)cc(-n3ccc(C(F)(F)F)n3)nc2c1Cl` [Compound 91a, (Z)-(4R,6S,15S,17S)-[17-[8-chloro-7-methoxy-2-(3-trifluoromethyl-1H-pyrazol-1-yl)quinolin-4-yloxy]-13-N-methyl-2,14-dioxo-1,3,13-triazatricyclo[13.3.0.0]octadec-7-ene-4-yl]carbonyl(1-methylcyclopropyl)sulfonamide] returned an IC50 of less than 1 µM. The CC50 in series [1] is greater than 75 µM. This compound came in with an EC50 in series [2] of less than 1 µM.
Compound `COc1ccc2c(O[C@H]3C[C@H]4C(=O)N(C)CCCC/C=C\[C@@H]5C[C@@]5(C(=O)NS(=O)(=O)C5(C)CC5)NC(=O)N4C3)cc(-n3ccc(C(C)C)n3)nc2c1C` [Compound 91b, (Z)-(4R,6S,15S,17S)-[17-[8-methyl-7-methoxy-2-(3-isopropyl-1H-pyrazol-1-yl)quinolin-4-yloxy]-13-N-methyl-2,14-dioxo-1,3,13-triazatricyclo[13.3.0.0]octadec-7-ene-4-yl]carbonyl(1-methylcyclopropyl)sulfonamide] gave an IC50 at HCV NS3-NS4A protease of less than 1 µM. This compound showed a CC50 in series [1] of 10 to 75 µM. In series [2], this compound displayed an EC50 of less than 1 µM.
As for `COc1ccc2c(O[C@H]3C[C@H]4C(=O)N(C)CCCC/C=C\[C@@H]5C[C@@]5(C(=O)NS(=O)(=O)C5(C)CC5)NC(=O)N4C3)cc(-n3ccc(C(F)(F)F)n3)nc2c1C` [Compound 91c, (Z)-(4R,6S,15S,17S)-[17-[7-methoxy-8-methyl-2-(3-trifluoromethyl-1H-pyrazol-1-yl)quinolin-4-yloxy]-13-N-methyl-2,14-dioxo-1,3,13-triazatricyclo[13.3.0.0]octadec-7-ene-4-yl]carbonyl(1-methylcyclopropyl)sulfonamide], the 50% inhibitory concentration (IC50) at HCV NS3-NS4A protease is less than 1 µM. The CC50 in series [1] was greater than 75 µM. The EC50 in series [2] is less than 1 µM.
`COc1ccc2c(O[C@H]3C[C@H]4C(=O)N(C)CCCC/C=C\[C@@H]5C[C@@]5(C(=O)NS(=O)(=O)C5(C)CC5)NC(=O)N4C3)cc(-n3ccc(C(C)C)n3)nc2c1Cl` [Compound 91d, (Z)-(4R,6S,15S,17S)-[17-[8-chloro-7-methoxy-2-(3-isopropyl-1H-pyrazol-1-yl)quinolin-4-yloxy]-13-N-methyl-2,14-dioxo-1,3,13-triazatricyclo[13.3.0.0]octadec-7-ene-4-yl]carbonyl(1-methylcyclopropyl)sulfonamide]: at HCV NS3-NS4A protease, the 50% inhibitory concentration (IC50) was less than 1 µM. In series [1], this compound showed a CC50 greater than 75 µM. The same compound came in with an EC50 in series [2] of less than 1 µM.
Take `COc1ccc2c(O[C@H]3C[C@H]4C(=O)N(C)CCCC/C=C\[C@@H]5C[C@@]5(C(=O)NS(=O)(=O)C5CC5)NC(=O)N4C3)cc(-n3ccc(C(C)C)n3)nc2c1C` [Compound 91f, (Z)-(4R,6S,15S,17S)-[17-[8-methyl-7-methoxy-2-(3-isopropyl-1H-pyrazol-1-yl)quinolin-4-yloxy]-13-N-methyl-2,14-dioxo-1,3,13-triazatricyclo[13.3.0.0]octadec-7-ene-4-yl]carbonyl(cyclopropyl)sulfonamide]: the IC50 on HCV NS3-NS4A protease was less than 1 µM. Also, the CC50 in series [1] is greater than 75 µM. The 50% effective concentration (EC50) in series [2] is less than 1 µM.
Consider `COc1ccc2c(O[C@H]3C[C@H]4C(=O)N(C)CCCC/C=C\[C@@H]5C[C@@]5(C(=O)NS(=O)(=O)C5CC5)NC(=O)N4C3)cc(-n3ccc(C(F)(F)F)n3)nc2c1C` [Compound 91g, (Z)-(4R,6S,15S,17S)-[17-[7-methoxy-8-methyl-2-(3-trifluoromethyl-1H-pyrazol-1-yl)quinolin-4-yloxy]-13-N-methyl-2,14-dioxo-1,3,13-triazatricyclo[13.3.0.0]octadec-7-ene-4-yl]carbonyl(cyclopropyl)sulfonamide], for which the IC50 against HCV NS3-NS4A protease is less than 1 µM. Also, the CC50 in series [1] is greater than 75 µM. Moreover, in series [2], the EC50 was less than 1 µM.
On to `COc1ccc2c(O[C@H]3C[C@H]4C(=O)N(C)CCCC/C=C\[C@@H]5C[C@@]5(C(=O)NS(=O)(=O)C5(C)CC5)NC(=O)N4C3)cc(-c3cc(C(C)C)on3)nc2c1Cl` [Compound 96d, (Z)-(4R,6S,15S,17S)-[17-[8-chloro-7-methoxy-2-(5-isopropylisoxazol-3-yl)quinolin-4-yloxy]-13-N-methyl-2,14-dioxo-1,3,13-triazatricyclo[13.3.0.0]octadec-7-ene-4-yl]carbonyl(1-methylcyclopropyl)sulfonamide], for which the half-inhibitory concentration (IC50) against HCV NS3-NS4A protease was less than 1 µM. The compound also displayed a cytotoxic concentration (CC50) in series [1] greater than 75 µM. For the same compound, in series [2], the EC50 was in the range of 1 to 10 µM.
The corresponding values for `COc1ccc2c(O[C@H]3C[C@H]4C(=O)N(C)CCCC/C=C\[C@@H]5C[C@@]5(C(=O)NS(=O)(=O)C5(C)CC5)NC(=O)N4C3)cc(-c3csc(C(C)C)n3)nc2c1Cl` [Compound 101d, (Z)-(4R,6S,15S,17S)-[17-[8-chloro-7-methoxy-2-(2-isopropythiazol-4-yl)quinolin-4-yloxy]-13-N-methyl-2,14-dioxo-1,3,13-triazatricyclo[13.3.0.0]octadec-7-ene-4-yl]carbonyl(1-methylcyclopropyl)sulfonamide] are less than 1 µM, greater than 75 µM and less than 1 µM.
On to `COc1ccc2c(O[C@H]3C[C@H]4C(=O)N(C)CCCC/C=C\[C@@H]5C[C@@]5(C(=O)NS(=O)(=O)C5(C)CC5)NC(=O)N4C3)nc(-c3nc(C(C)C)cs3)nc2c1Cl` [Compound 110d, (Z)-(4R,6S,15S,17S)-[17-[8-chloro-7-methoxy-2-(4-isopropylthiazol-2-yl)quinazolin-4-yloxy]-13-N-methyl-2,14-dioxo-1,3,13-triazatricyclo[13.3.0.0]octadec-7-ene-4-yl]carbonyl(1-methylcyclopropyl)sulfonamide], for which, on HCV NS3-NS4A protease, the IC50 is less than 1 µM. For the same compound, in series [1], the 50% cytotoxic concentration (CC50) was greater than 75 µM. The same compound registered an EC50 in series [2] of less than 1 µM.
